Experimental data from US20240360082A1, “SUBSTITUTED PYRIDONE COMPOUNDS USEFUL TO TREAT ORTH[…]” (priority 2021, published 2024).

Each compound was assayed against influenza A virus minigenome (PB2, PB1, PA, NP proteins) (UniProt P04665). Details: read-out: RNP_ Hubei B IC50.
Format: cell-based

influenza A virus minigenome (PB2, PB1, PA, NP proteins), sequence (P04665 whole entry): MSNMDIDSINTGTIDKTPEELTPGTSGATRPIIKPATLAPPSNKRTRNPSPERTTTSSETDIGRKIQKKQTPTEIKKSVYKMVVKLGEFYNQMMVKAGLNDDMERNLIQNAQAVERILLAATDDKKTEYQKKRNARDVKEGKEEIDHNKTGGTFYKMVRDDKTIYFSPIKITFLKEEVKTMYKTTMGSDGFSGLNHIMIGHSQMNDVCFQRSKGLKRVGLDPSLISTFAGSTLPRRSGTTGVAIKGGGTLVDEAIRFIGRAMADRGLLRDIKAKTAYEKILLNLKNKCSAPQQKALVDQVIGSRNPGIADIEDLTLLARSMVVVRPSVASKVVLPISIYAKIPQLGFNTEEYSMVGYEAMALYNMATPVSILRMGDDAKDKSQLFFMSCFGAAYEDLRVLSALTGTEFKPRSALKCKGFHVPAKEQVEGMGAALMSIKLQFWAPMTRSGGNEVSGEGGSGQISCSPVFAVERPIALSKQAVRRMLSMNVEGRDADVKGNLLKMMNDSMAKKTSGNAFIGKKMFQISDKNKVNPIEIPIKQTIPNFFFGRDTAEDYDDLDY

Compound | IC50 [µM]
NC(=O)c1cc(-c2ccc(OCC3COCC(F)(F)C3)cc2)c(C(F)(F)F)[nH]c1=O (single isomer, unassigned) [Example 336, 5-(4-((5,5-difluorotetrahydro-2H-pyran-3-yl)methoxy)phenyl)-2-oxo-6-(trifluoromethyl)-1,2-dihydropyridine-3-carboxamide] | 5 to 10
NC(=O)c1cc(-c2ccc(OCC3COCC(F)(F)C3)cc2)c(C(F)(F)F)[nH]c1=O (single isomer, unassigned) [Example 337, 5-(4-((5,5-difluorotetrahydro-2H-pyran-3-yl)methoxy)phenyl)-2-oxo-6-(trifluoromethyl)-1,2-dihydropyridine-3-carboxamide] | 5 to 10
NC(=O)c1cc(-c2ccc(OCC3COC(CF)CO3)cc2)c(C(F)(F)F)[nH]c1=O (single isomer, unassigned) [Example 340, 5-(4-((5-(fluoromethyl)-1,4-dioxan-2-yl)methoxy)phenyl)-2-oxo-6-(trifluoromethyl)-1,2-dihydropyridine-3-carboxamide] | 5 to 10
NC(=O)c1cc(-c2ccc(OCC3COC(CF)CO3)cc2)c(C(F)(F)F)[nH]c1=O (single isomer, unassigned) [Example 341, 5-(4-((5-(fluoromethyl)-1,4-dioxan-2-yl)methoxy)phenyl)-2-oxo-6-(trifluoromethyl)-1,2-dihydropyridine-3-carboxamide] | 5 to 10
NC(=O)c1cc(-c2ccc(OCC3COC(CF)CO3)cc2)c(C(F)(F)F)[nH]c1=O (single isomer, unassigned) [Example 342, 5-(4-((5-(fluoromethyl)-1,4-dioxan-2-yl)methoxy)phenyl)-2-oxo-6-(trifluoromethyl)-1,2-dihydropyridine-3-carboxamide] | 5 to 10
NC(=O)c1cc(-c2ccc(OCC3COC(CF)CO3)cc2)c(C(F)(F)F)[nH]c1=O (single isomer, unassigned) [Example 343, 5-(4-((5-(fluoromethyl)-1,4-dioxan-2-yl)methoxy)phenyl)-2-oxo-6-(trifluoromethyl)-1,2-dihydropyridine-3-carboxamide] | 5 to 10
NC(=O)c1cc(-c2ccc(OCC3COC(C(F)F)CO3)cc2)c(C(F)(F)F)[nH]c1=O (single isomer, unassigned) [Example 344, 5-(4-((5-(difluoromethyl)-1,4-dioxan-2-yl)methoxy)phenyl)-2-oxo-6-(trifluoromethyl)-1,2-dihydropyridine-3-carboxamide] | 5 to 10
NC(=O)c1cc(-c2ccc(OCC3COC(C(F)F)CO3)cc2)c(C(F)(F)F)[nH]c1=O (single isomer, unassigned) [Example 345, 5-(4-((5-(difluoromethyl)-1,4-dioxan-2-yl)methoxy)phenyl)-2-oxo-6-(trifluoromethyl)-1,2-dihydropyridine-3-carboxamide] | 5 to 10
NC(=O)c1cc(-c2ccc(OCC3COC(C(F)F)CO3)cc2)c(C(F)(F)F)[nH]c1=O (single isomer, unassigned) [Example 346, 5-(4-((5-(difluoromethyl)-1,4-dioxan-2-yl)methoxy)phenyl)-2-oxo-6-(trifluoromethyl)-1,2-dihydropyridine-3-carboxamide] | 5 to 10
NC(=O)c1cc(-c2ccc(OCC3COC(C(F)F)CO3)cc2)c(C(F)(F)F)[nH]c1=O (single isomer, unassigned) [Example 347, 5-(4-((5-(difluoromethyl)-1,4-dioxan-2-yl)methoxy)phenyl)-2-oxo-6-(trifluoromethyl)-1,2-dihydropyridine-3-carboxamide] | 5 to 10
NC(=O)c1cc(-c2ccc(OCC3COCC(C(F)F)O3)cc2)c(C(F)(F)F)[nH]c1=O (single isomer, unassigned) [Example 349, 5-(4-((6-(difluoromethyl)-1,4-dioxan-2-yl)methoxy)phenyl)-2-oxo-6-(trifluoromethyl)-1,2-dihydropyridine-3-carboxamide] | 5 to 10
COC1(C2COCC(COc3ccc(-c4cc(C(N)=O)c(=O)[nH]c4C(F)(F)F)cc3)O2)CC1 (single isomer, unassigned) [Example 353, 5-(4-((6-(1-methoxycyclopropyl)-1,4-dioxan-2-yl)methoxy)phenyl)-2-oxo-6-(trifluoromethyl)-1,2-dihydropyridine-3-carboxamide] | 5 to 10
CC(C)(O)C1COCC(COc2ccc(-c3cc(C(N)=O)c(=O)[nH]c3C(F)(F)F)cc2)O1 (single isomer, unassigned) [Example 354, 5-(4-((6-(2-hydroxypropan-2-yl)-1,4-dioxan-2-yl)methoxy)phenyl)-2-oxo-6-(trifluoromethyl)-1,2-dihydropyridine-3-carboxamide] | 5 to 10
CC(C)(O)C1COCC(COc2ccc(-c3cc(C(N)=O)c(=O)[nH]c3C(F)(F)F)cc2)O1 (single isomer, unassigned) [Example 355, 5-(4-((6-(2-hydroxypropan-2-yl)-1,4-dioxan-2-yl)methoxy)phenyl)-2-oxo-6-(trifluoromethyl)-1,2-dihydropyridine-3-carboxamide] | 5 to 10
CC1(C2COCC(COc3ccc(-c4cc(C(N)=O)c(=O)[nH]c4C(F)(F)F)cc3)O2)CC1 (single isomer, unassigned) [Example 356, 5-(4-((6-(1-methylcyclopropyl)-1,4-dioxan-2-yl)methoxy)phenyl)-2-oxo-6-(trifluoromethyl)-1,2-dihydropyridine-3-carboxamide] | 5 to 10
CC(F)(F)C1COCC(COc2ccc(-c3cc(C(N)=O)c(=O)[nH]c3C(F)(F)F)cc2)O1 (single isomer, unassigned) [Example 358, 5-(4-((6-(1,1-difluoroethyl)-1,4-dioxan-2-yl)methoxy)phenyl)-2-oxo-6-(trifluoromethyl)-1,2-dihydropyridine-3-carboxamide] | 5 to 10
CC(F)(F)C1COCC(COc2ccc(-c3cc(C(N)=O)c(=O)[nH]c3C(F)(F)F)cc2)O1 (single isomer, unassigned) [Example 359, 5-(4-((6-(1,1-difluoroethyl)-1,4-dioxan-2-yl)methoxy)phenyl)-2-oxo-6-(trifluoromethyl)-1,2-dihydropyridine-3-carboxamide] | 5 to 10
CCOCC1COCC(COc2ccc(-c3cc(C(N)=O)c(=O)[nH]c3C(F)(F)F)cc2)O1 (single isomer, unassigned) [Example 361, 5-(4-((6-(ethoxymethyl)-1,4-dioxan-2-yl)methoxy)phenyl)-2-oxo-6-(trifluoromethyl)-1,2-dihydropyridine-3-carboxamide] | 5 to 10
NC(=O)c1cc(-c2ccc(OCC3COCC(COCC4CC4)O3)cc2)c(C(F)(F)F)[nH]c1=O (single isomer, unassigned) [Example 362, 5-(4-((6-((cyclopropylmethoxy)methyl)-1,4-dioxan-2-yl)methoxy)phenyl)-2-oxo-6-(trifluoromethyl)-1,2-dihydropyridine-3-carboxamide] | 5 to 10
NC(=O)c1cc(-c2ccc(OCC3COCC(COCC4CC4)O3)cc2)c(C(F)(F)F)[nH]c1=O (single isomer, unassigned) [Example 363, 5-(4-((6-((cyclopropylmethoxy)methyl)-1,4-dioxan-2-yl)methoxy)phenyl)-2-oxo-6-(trifluoromethyl)-1,2-dihydropyridine-3-carboxamide] | 5 to 10
NC(=O)c1cc(-c2ccc(OCC3COCC(COCC4(F)CC4)O3)cc2)c(C(F)(F)F)[nH]c1=O (single isomer, unassigned) [Example 364, 5-(4-((6-(((1-fluorocyclopropyl)methoxy)methyl)-1,4-dioxan-2-yl)methoxy)phenyl)-2-oxo-6-(trifluoromethyl)-1,2-dihydropyridine-3-carboxamide] | 5 to 10
NC(=O)c1cc(-c2ccc(OCC3COCC(COCC4(F)CC4)O3)cc2)c(C(F)(F)F)[nH]c1=O (single isomer, unassigned) [Example 365, 5-(4-((6-(((1-fluorocyclopropyl)methoxy)methyl)-1,4-dioxan-2-yl)methoxy)phenyl)-2-oxo-6-(trifluoromethyl)-1,2-dihydropyridine-3-carboxamide] | 5 to 10
NC(=O)c1cc(-c2ccc(OCC3COCC(COC4CC(F)(F)C4)O3)cc2)c(C(F)(F)F)[nH]c1=O (single isomer, unassigned) [Example 366, 5-(4-((6-((3,3-difluorocyclobutoxy)methyl)-1,4-dioxan-2-yl)methoxy)phenyl)-2-oxo-6-(trifluoromethyl)-1,2-dihydropyridine-3-carboxamide] | 5 to 10
NC(=O)c1cc(-c2ccc(OCC3COCC(COC4CC(F)(F)C4)O3)cc2)c(C(F)(F)F)[nH]c1=O (single isomer, unassigned) [Example 367, 5-(4-((6-((3,3-difluorocyclobutoxy)methyl)-1,4-dioxan-2-yl)methoxy)phenyl)-2-oxo-6-(trifluoromethyl)-1,2-dihydropyridine-3-carboxamide] | 5 to 10
NC(=O)c1cc(-c2ccc(OCC3COCC(COCC(F)F)O3)cc2)c(C(F)(F)F)[nH]c1=O (single isomer, unassigned) [Example 368, 5-(4-((6-((2,2-difluoroethoxy)methyl)-1,4-dioxan-2-yl)methoxy)phenyl)-2-oxo-6-(trifluoromethyl)-1,2-dihydropyridine-3-carboxamide] | 5 to 10

Same assay, conditions: read-out: RNP_Hubei B

Compound | IC50 [µM]
NC(=O)c1cc(-c2ccc(OCC3COCC(C(F)F)O3)cc2)c(C(F)(F)F)[nH]c1=O (single isomer, unassigned) [Example 348, 5-(4-((6-(difluoromethyl)-1,4-dioxan-2-yl)methoxy)phenyl)-2-oxo-6-(trifluoromethyl)-1,2-dihydropyridine-3-carboxamide] | 5 to 10
CC1(C2COCC(COc3ccc(-c4cc(C(N)=O)c(=O)[nH]c4C(F)(F)F)cc3)O2)CC1 (single isomer, unassigned) [Example 357, 5-(4-((6-(1-methylcyclopropyl)-1,4-dioxan-2-yl)methoxy)phenyl)-2-oxo-6-(trifluoromethyl)-1,2-dihydropyridine-3-carboxamide] | 5 to 10
CCOCC1COCC(COc2ccc(-c3cc(C(N)=O)c(=O)[nH]c3C(F)(F)F)cc2)O1 (single isomer, unassigned) [Example 360, 5-(4-((6-(ethoxymethyl)-1,4-dioxan-2-yl)methoxy)phenyl)-2-oxo-6-(trifluoromethyl)-1,2-dihydropyridine-3-carboxamide] | 5 to 10
